Data reported in article PMC8400955 (Pharmaceuticals, 2021).

Legend:
Format in all cases: in vitro ADME
[1] = tested on: dog hepatocytes; assay: Metabolic stability in dog hepatocytes; conditions: 1 μM
Procedure: (§1) Hepatocytes of humans (#X008001), dogs (#M00205), rats (#M00005), and mice (#M005052) were purchased from BioIVT, NY, USA. Monkey hepatocytes were procured from RILD, Shanghai, China. The metabolic stability of ZB716 in human, monkey, dog, rat and mouse hepatocytes was investigated by incubating ZB716 with human, monkey, dog, rat, and mouse hepatocytes (0.5 × 10^6 cells/mL), or with incubation medium only.
(§2) parent disappearance vs. incubation time curve.
(§3) Scaled-up Clint = kV/N × Scaling Factor
(§4) metabolite formed during the reaction.

[2] = Metabolic stability in dog hepatocytes
Procedure: as §1, §2, §3, §4

[3] = target: T1, CYP1A2 (Homo sapiens, UniProt P05177); assay: CYP inhibition in human liver microsomes, CYP1A2; conditions: HLM, marker substrate Phenacetin
T1 sequence (P05177 1-516): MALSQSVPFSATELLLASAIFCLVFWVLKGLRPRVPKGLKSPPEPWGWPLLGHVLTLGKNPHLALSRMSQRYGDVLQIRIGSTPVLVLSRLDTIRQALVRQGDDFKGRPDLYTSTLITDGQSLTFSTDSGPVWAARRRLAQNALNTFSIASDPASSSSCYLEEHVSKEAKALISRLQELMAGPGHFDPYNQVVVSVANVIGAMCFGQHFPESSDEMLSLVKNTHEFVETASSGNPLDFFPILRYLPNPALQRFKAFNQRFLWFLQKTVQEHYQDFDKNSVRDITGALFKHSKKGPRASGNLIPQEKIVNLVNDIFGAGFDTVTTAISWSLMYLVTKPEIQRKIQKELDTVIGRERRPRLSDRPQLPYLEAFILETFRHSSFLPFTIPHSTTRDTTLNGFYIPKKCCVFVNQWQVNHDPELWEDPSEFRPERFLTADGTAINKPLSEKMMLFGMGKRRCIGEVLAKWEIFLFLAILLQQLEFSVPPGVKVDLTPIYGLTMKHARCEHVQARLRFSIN
Procedure: . The inhibition of CYP2B6 and 3A4 (when midazolam was used as the substrate) by ZB716 was not observed. The inhibitory potential of ZB716 on human CYP enzyme activities appears relatively low.
The final concentrations of ZB716 in the incubation system were 0, 0.05, 0.15, 0.5, 1.5, 5, and 15 µM (final organic solvent concentration ≤ 1%). […] . […] The concentrations of the isoform-specific metabolites derived from marker substrates were measured by UPLC–MS/MS. The IC50 values were calculated from the percentages of the rate of the metabolite formation relative to non-inhibited controls vs. the concentrations of ZB716 or positive control inhibitors. All incubations were performed in triplicate. The mean of the enzyme activity (% of non-inhibited control) for each concentration was plotted against the log inhibitor concentration, and fitted to an IC50 curve.

In the case of `C[C@]12CC[C@@H]3c4ccc(B(O)O)cc4C[C@@H](CCCCCCCCC[S+]([O-])CCCC(F)(F)C(F)(F)F)[C@H]3[C@@H]1CC[C@@H]2O` (some centres unmarked) [ZB716, fulvestrant-3-boronic acid], the “Remaining at 120 min” value [1] is reported as 6.99 ± 0.46%, the half-life at 1 μM ([2]; read-out: Estimated In Vitro t1/2) is reported as 26.7 ± 0.4 min and the hepatocyte CLint at 1 μM ([2]; read-out: In Vitro Clint) is reported as 51.9 ± 0.7 µL/min/1e6 cells. The CLint scaled at 1 μM ([2]; read-out: Scaled-Up Clint) was 357 ± 5 mL/min/kg and the IC50 [3] was > 15 µM.
